The values below come from ChEMBL document CHEMBL4376803, “Recent Advances in the Exploration of Therapeutic Analogues of Gramicidin S, an Old but Still Potent Antimicrobial Peptide” (J Med Chem, 2019).

As usually defined, the MIC is the smallest concentration in the dilution series that meets the test's criterion for growth inhibition. Low readings indicate inhibition by little substance, high ones a need for much substance.

The structures appear in SMILES notation. Converted amounts (≈) assume the structure as drawn. Square brackets hold non-standard residues; d marks the D form. Peptide text beside a SMILES is read from it.

The subject of data set [1] is Staphylococcus aureus. As to the kind of experiment: Antibacterial activity against Staphylococcus aureus K147 after overnight incubation by microtiter dilution method. Type of data set: functional.
Data set [2] deals with Erythrocyte. The data set is described as follows: Haemolytic activity in human RBC after 4 hrs by visual method. It is filed as ADME, cell-based.
Data set [3] relates to Pseudomonas aeruginosa. The data set is described as follows: Antibacterial activity against Pseudomonas aeruginosa H188 after overnight incubation by microtiter dilution method. Type of data set: functional.
The test system of data set [4] is Escherichia coli. As to the kind of experiment: Antibacterial activity against Escherichia coli DC2 after overnight incubation by microtiter dilution method. Type of data set: functional.
The subject of data set [5] is Enterococcus faecalis. As to the kind of experiment: Antibacterial activity against Enterococcus faecalis C625 after overnight incubation by microtiter dilution method. Type of data set: functional.
Data set [6] has as its system Staphylococcus epidermidis. As to the kind of experiment: Antibacterial activity against Staphylococcus epidermidis C621 after 22 hrs by double dilution method. It is filed as functional. Conditions: C621, 22 h.
Data set [7] has as its system Escherichia coli. As to the kind of experiment: Antibacterial activity against Escherichia coli UB1005 after overnight incubation by microtiter dilution method. Type of data set: functional.
For data set [8], the system named is Pseudomonas aeruginosa. The data set is described as follows: Antibacterial activity against Pseudomonas aeruginosa H187 after overnight incubation by microtiter dilution method. It is filed as functional.
Data set [9] deals with Enterococcus faecalis. The data set is described as follows: Antibacterial activity against Enterococcus faecalis ATCC 29212 after overnight incubation by microtiter dilution method. It is filed as functional.
For data set [10], the system named is Candida albicans. The data set is described as follows: Antibacterial activity against Candida albicans after overnight incubation by microtiter dilution method. Type of data set: functional.
Data set [11] deals with Lipopolysaccharide (LPS). The data set is described as follows: Displacement of Dansyl-polymyxin from Pseudomonas aeruginosa LPS by fluorescence method. Conditions: read-out: I50.
Data set [12] in a line: Therapeutic index, ratio of HD100 for hemolytic activity in human RBC to MIC against Escherichia coli UB1005. It is filed as toxicity. Conditions: human red blood cells, read-out: TI.
A short description of data set [13]: Therapeutic index, ratio of HD100 for hemolytic activity in human RBC to MIC against Pseudomonas aeruginosa H187. Conditions: human red blood cells, read-out: TI. It is filed as toxicity.
Data set [14] can be described thus: Therapeutic index, ratio of HD100 for hemolytic activity in human RBC to MIC against Enterococcus faecalis ATCC 29212. Conditions: human red blood cells, read-out: TI. Type of data set: toxicity.
Data set [15] is described as follows: Therapeutic index, ratio of HD100 for hemolytic activity in human RBC to MIC against Staphylococcus aureus K147. It is filed as toxicity. Conditions: human red blood cells, read-out: TI.
Data set [16] can be described thus: Therapeutic index, ratio of HD100 for hemolytic activity in human RBC to MIC against Candida albicans. Type of data set: toxicity. Conditions: human red blood cells, read-out: TI.
The test system of data set [17] is Erythrocyte. The data set is described as follows: Haemolytic activity in human RBC after 24 hrs by visual method. It is filed as ADME, cell-based.

Consider `CC(C)C[C@@H]1NC(=O)[C@H](CCCN)NC(=O)[C@H](C(C)C)NC(=O)[C@@H]2CC[C@@H]3CC[C@H](NC(=O)[C@H](CC(C)C)NC(=O)[C@@H](CCCN)NC(=O)[C@H](C(C)C)NC(=O)[C@@H]4CC[C@@H]5CC[C@H](NC1=O)C(=O)N54)C(=O)N32`, for which the MIC in data set [1] turned out to be 12.5 µg/mL (≈ 12.3 µM); in data set [3], 12.5 µg/mL (≈ 12.3 µM); in data set [4], 25 µg/mL (≈ 24.7 µM); in [5] it was 25 µg/mL (≈ 24.7 µM); in data set [6], 12.5 µg/mL (≈ 12.3 µM). This compound had an HC90 in data set [2] of 400 µg/mL.

On to `CC(C)C[C@@H]1NC(=O)[C@H](CCCCN)NC(=O)[C@H](C(C)C)NC(=O)[C@@H]2CCCN2C(=O)[C@@H](Cc2ccc(O)cc2)NC(=O)[C@H](CC(C)C)NC(=O)[C@H](CCCCN)NC(=O)[C@H](C(C)C)NC(=O)[C@H](CCCCN)NC(=O)[C@H](CC(C)C)NC(=O)[C@@H]2CCCN2C(=O)[C@@H](Cc2ccc(O)cc2)NC(=O)[C@H](C(C)C)NC(=O)[C@@H](CCCCN)NC1=O` (cyclo(KL[dK]V[dY]PLKVKL[dY]PV)), for which the MIC was found to be 6.2 µg/mL (≈ 3.71 µM) in data set [7]; 25 µg/mL (≈ 15 µM) in data set [8]; 1.5 µg/mL (≈ 0.898 µM) in data set [9]; 100 µg/mL (≈ 59.9 µM) in data set [1]; 6.2 µg/mL (≈ 3.71 µM) in data set [10]. Further, the IC50 in data set [11] worked out at 93 µM. Also, the selectivity ratio in data set [12] was 32; in [13], 8; in data set [14], 133; in data set [15] it was 2; in data set [16], 32. In [17], the HD100 stood at 200 µg/mL.
